Data set [1] addresses T1, 3',5'-cyclic-AMP phosphodiesterase 4D (Homo sapiens, UniProt Q08499). Briefly: Inhibition of PDE4D7 (unknown origin) using FAM-cyclic-3',5'-AMP as substrate at 10 nM incubated for 1 hrs by fluorescence polarization based IMAP assay relative to control. In general terms: In fluorescence polarisation assays a small probe gives low polarisation when free and higher when bound to something large.

For data set [2], the target named is T1, 3',5'-cyclic-AMP phosphodiesterase 4D. In words: Inhibition of PDE4D7 (unknown origin) using FAM-cyclic-3',5'-AMP as substrate at 100 nM incubated for 1 hrs by fluorescence polarization based IMAP assay relative to control.
Data set [3] shares this target. In words: Inhibition of PDE4D7 (unknown origin) using FAM-cyclic-3',5'-AMP as substrate at 1 microM incubated for 1 hrs by fluorescence polarization based IMAP assay relative to control.
The target is the same in data set [4]. In words: Inhibition of PDE4D7 (unknown origin) using FAM-cyclic-3',5'-AMP as substrate incubated for 1 hrs by fluorescence polarization based IMAP assay.
The subject of another data set is HT-22. Briefly: Cytotoxicity against mouse HT-22 cells assessed as reduction in cell viability at 30 uM incubated for 48 hrs by MTT assay. The class given is toxicity, cell-based. To be noted: ht-22, 48 h.
The next data set has as its system SH-SY5Y. In words: Cytotoxicity against human SH-SY5Y cells assessed as reduction in cell viability at 20 uM incubated for 48 hrs by MTT assay. The class given is toxicity, cell-based. In general terms: Formazan colour is commonly taken as a measure of viable cells.
Data set [5] in a line: Chemical stability of compound in aqueous solution at pH <6 measured after 48 hrs. The format is physicochemical. To be noted: buffer.
Data set [6] in a line: Chemical stability of compound in aqueous solution at pH >10 measured after 48 hrs. The format is physicochemical. To be noted: buffer.
A short description of data set [7]: Toxicity in ketamine/xylazine-induced anesthetic C57BL/6J mouse model assessed as emetogenic potential by measuring reduction in anesthesia duration at 0.5 mg/kg, po preadministered with compound for 15 mins followed by ketamine/xylazine administration. The class given is organism-based. To be noted: in vivo, 0.25 h.
The nature of data set [8]: Oral bioavailability in Sprague-Dawley rat at 5 mg/kg measured after 24 hrs by LC-MS/MS analysis. The format is ADME, organism-based. To be noted: in vivo.

T1 sequence (Q08499 whole entry): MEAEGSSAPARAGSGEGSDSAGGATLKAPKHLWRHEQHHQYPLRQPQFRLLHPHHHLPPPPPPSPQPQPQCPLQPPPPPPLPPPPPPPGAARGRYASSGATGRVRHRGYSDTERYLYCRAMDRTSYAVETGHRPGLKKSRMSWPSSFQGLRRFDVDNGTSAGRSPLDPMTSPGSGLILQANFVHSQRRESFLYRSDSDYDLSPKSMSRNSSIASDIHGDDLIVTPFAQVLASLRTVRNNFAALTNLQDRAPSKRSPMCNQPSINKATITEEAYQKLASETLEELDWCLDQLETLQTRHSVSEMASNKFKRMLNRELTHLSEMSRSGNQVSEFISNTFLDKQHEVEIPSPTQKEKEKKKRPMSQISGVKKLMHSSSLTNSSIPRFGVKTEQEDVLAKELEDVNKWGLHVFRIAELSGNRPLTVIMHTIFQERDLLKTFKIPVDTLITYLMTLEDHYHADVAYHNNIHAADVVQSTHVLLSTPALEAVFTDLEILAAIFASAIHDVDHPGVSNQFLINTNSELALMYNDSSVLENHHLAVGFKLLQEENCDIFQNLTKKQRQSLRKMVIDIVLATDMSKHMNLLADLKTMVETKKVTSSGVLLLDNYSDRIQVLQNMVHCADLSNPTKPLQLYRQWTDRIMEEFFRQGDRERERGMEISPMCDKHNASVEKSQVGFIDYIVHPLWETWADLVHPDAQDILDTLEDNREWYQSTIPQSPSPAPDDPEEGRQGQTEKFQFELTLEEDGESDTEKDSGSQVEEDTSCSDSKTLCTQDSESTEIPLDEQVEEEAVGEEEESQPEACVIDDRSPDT

For `CCOc1nc(Cl)cc2c1cnn2CC(N)=O`, the inhibition in data set [1] and in [2] was 3% each time.
On to `CCOc1nc(Cl)cc2c1cnn2CC#N`, for which the inhibition in data set [1] turned out to be 3%; in data set [2], 5%.
Turning to `CCOc1nc(Cl)cc2c1cnn2CC(=O)NOC`, the inhibition in data set [1] was 4%; in data set [2], 6%.
Turning to `CCCOc1nc(Cl)cc2c1cnn2C1CCOCC1`, the results for the inhibition in data set [3] and in data set [2] were 5% and 2%, respectively.
On to `CCOc1nc(Cl)cc2nn(CCC(=O)NO)cc12`, for which the figures for the inhibition in data set [1] and in [2] were 25% and 66%, respectively. Further, half-maximal inhibition in data set [4] (IC50) required 38.7 nM.
Consider `COc1nc(Cl)cc2c1cnn2C1CCOCC1`, for which the inhibition is 75% in data set [3] and 35% in data set [2].
Turning to `CCOc1nc(Cl)cc2c1cnn2CC1CCCO1` (stereo not given), the inhibition in data set [2] was 4%.
In turn, `CNc1nc(Cl)cc2nn(C3CCOCC3)cc12` displayed an inhibition in data set [2] of 17%.
As for `CCOc1nc(Cl)cc2c1c(C(F)(F)F)nn2CCCC(=O)O`, the inhibition in [1] turned out to be 23%; in data set [2], 53%.
For the compound `CC(C)Oc1nc(Cl)cc2c1cnn2C1CCOCC1`, the inhibition in data set [3] came out at 30%; in data set [2], 12%.
For `CCOc1nc(Cl)cc2c1cnn2CCC(=O)NO`, the inhibition in data set [1] worked out at 9%; in data set [2], 18%.
As to `Clc1cc2c(cnn2C2CCOCC2)c(OC2CC2)n1`, the inhibition in data set [3] was determined as 8%; in data set [2], 4%.
As to `CCOc1nc(Cl)cc2c1c(CC)nn2CCCC(=O)O`, the inhibition in [1] was 15%; in data set [2], 48%.
Consider `CCOc1nc(Cl)cc2c1cnn2CC(=O)O`, for which the inhibition in [1] and in data set [2] was 3% throughout.
As to `CCOc1nc(Cl)cc2nn(CC(=O)NO)cc12`, the Activity entry with HT-22 and in the data set on SH-SY5Y was “Non-Toxic” throughout. Further, the inhibition worked out at 36% in data set [1] and 69% in data set [2]. The compound also gave an IC50 in data set [4] of 20.2 nM.
As to `CCOc1nc(Cl)cc2nn(C3CCOCC3)cc12`, the inhibition in [2] stood at 35%.
Same read-out and setting: under `CCOc1nc(Cl)cc2c1cnn2-c1ccc(OC)cc1` stands 5%.
`CCOc1nc(Cl)cc2c1cnn2CC1(C)COC1`: the inhibition in data set [2] was determined as 7%.
Consider `CCOc1nc(-c2ccccc2)cc2c1cnn2C1CCOCC1`, for which the results for the inhibition in [3] and in [2] were 32% and 14%, respectively.
On the same counts, the results for `CNc1nc(Cl)cc2c1cnn2C1CCOCC1` are 0% and 0%.
Taken in the same sequence, the figures for `CCOc1nc(C(N)=O)cc2c1cnn2C1CCOCC1` were 12% and 6%.
`CCOc1nc(Cl)cc2nn(CC3CCCO3)cc12` (stereo not given) gave an inhibition in [2] of 10%.
Compound `CCOc1nc(Cl)cc2c1cnn2C1CCSCC1` came in with an inhibition in data set [2] of 5%.
Consider `CCOc1nc(Cl)cc2c1cnn2CC(=O)NC`, for which the inhibition in data set [1] and in data set [2] was 4% in each case.
With `CCOc1nc(Cl)cc2c1c(-c1ccncc1)nn2CCCC(=O)O`, the figures for the inhibition in data set [1] and in data set [2] were 5% and 24%, respectively.
On the same counts, the results for `CCOc1nc(Cl)cc2c1c(C)nn2CCCC(=O)O` are 6% and 11%.
On the same counts, the results for `CCOc1nc(Cl)cc2c1c(C1CC1)nn2CCCC(=O)O` are 8% and 13%.
On the same counts, the results for `CCOc1nc(Cl)cc2c1cnn2CC(=O)N(C)O` are 5% and 8%.
For the compound `CNc1nc(Cl)cc2c1cnn2C1CCCC1`, the figures for the inhibition in data set [3] and in data set [2] were 59% and 15%, respectively.
Turning to `CCOc1nc(Cl)cc2c1c(/C=C/c1ccc(OC)cc1)nn2CCCC(=O)O`, the values for the inhibition in data set [1] and in data set [2] were 2% and 5%, respectively.
Taken in the same sequence, the figures for `CCOc1nc(Cl)cc2c1c(C1CCCCC1)nn2CCCC(=O)O` were 6% and 11%.
On the same counts, the results for `CCOc1nc(Cl)cc2c1cnn2CCCCO` are 5% and 6%.
Take `CCOc1nc(Cl)cc2nn(CCCO)cc12`: the Activity result in the data set on HT-22 and in the data set with SH-SY5Y was “Non-Toxic” in each case. Moreover, the inhibition in data set [1] turned out to be 21%; in data set [2] it was 53%. It took 71.3 nM to reach half-maximal inhibition in [4] (IC50).
As to `CCOc1nc(-c2cccs2)cc2c1cnn2C1CCOCC1`, the inhibition came out at 23% in data set [3] and 4% in data set [2].
Taken in the same sequence, the figures for `CCNc1nc(Cl)cc2c1cnn2C1CCCC1` were 28% and 5%.
Consider `CCOc1nc(C)cc2c1cnn2C1CCOCC1`, for which the inhibition in data set [2] was 5%.
Consider `CCOc1nc(Cl)cc2c1c(-c1cccc(OC)c1)nn2CCCC(=O)O`, for which the values for the inhibition in data set [1] and in data set [2] were 3% and 6%, respectively.
Consider `CCOc1nc(Cl)cc2c1c(-c1cccnc1)nn2CCCC(=O)O`, for which the inhibition was found to be 4% in [1] and 9% in data set [2].
On the same counts, the results for `CCOc1nc(Cl)cc2nn(CCCCO)cc12` are 4% and 3%.
Taken in the same sequence, the figures for `CCOc1nc(Cl)cc2nn(CCO)cc12` were 6% and 5%.
`CCOc1nc(Cl)cc2c1cnn2C1CCOCC1`: the Stability entry in [5] and in data set [6] was “Stable” in each case. Moreover, the inhibition came out at 95% in [3] and 64% in data set [2]. In addition, the half-maximal inhibitory concentration (IC50) in [4] came out at 92.7 nM.
Regarding `CCOc1nc(Cl)cc2nn(-c3cccc(OC)c3)cc12`, the inhibition in [2] worked out at 8%.
Still for that read-out and setting: the figure for `CCOc1nccc2c1cnn2C1CCOCC1` is 1%.
On to `CCOc1nc(Cl)cc2nn(CC(=O)O)cc12`, for which the inhibition in data set [1] came to 5%; in [2] it was 7%.
In the case of `CCOc1nc(Cl)cc2c1cnn2CC(=O)NO`, the Activity result with HT-22 and with SH-SY5Y was “Non-Toxic” throughout. The inhibition in data set [1] stood at 41%; in data set [2], 68%. In data set [4], the midpoint of inhibition, the IC50, lay at 16.6 nM.
Regarding `CCOc1cc([C@@H](CS(C)(=O)=O)N2C(=O)c3cccc(NC(C)=O)c3C2=O)ccc1OC` [APREMILAST], the Activity result in [7] was “Toxic”.
Regarding `CCOc1nc(C(C)=O)cc2c1cnn2C1CCOCC1`, the inhibition is 9% in data set [3] and 6% in data set [2].
On to `CCOc1nc(Cl)nc2c1cnn2C1CCOCC1`, for which the Stability result in [5] and in data set [6] was “Unstable” throughout.
Take `CCOc1nc(Cl)cc2nn(CCCC(=O)O)cc12`: the results for the inhibition in [1] and in data set [2] were 6% and 8%, respectively.
For the compound `CCOc1nc(C#N)cc2c1cnn2C1CCOCC1`, the inhibition in data set [3] amounted to 82%; in data set [2], 32%. This compound displayed an IC50 in [4] of 230 nM.
On to `CCOc1nc(Cl)cc2c1cnn2CCCO`, for which the inhibition was 5% in data set [1] and 8% in data set [2].
On the same counts, the results for `CCOc1nc(Cl)cc2c1c(-c1ccc(OC)cc1)nn2CCCC(=O)O` are 7% and 16%.
`CCOc1nc(Cl)cc2c1cnn2CCCC(=O)NO`: the inhibition in data set [1] was 5%; in data set [2] it was 19%.
In [2], `CCOc1nc(Cl)cc2c1cnn2C(C)c1ccc(C(F)(F)F)cc1` (stereo not given) had an inhibition of 14%.
Same read-out and setting: under `CCOc1nc(Cl)cc2c1cnn2CC1CCOC1` (stereo not given) stands 9%.
With `Clc1cc2c(cnn2C2CCOCC2)c(OC2CCCC2)n1`, the results for the inhibition in data set [3] and in data set [2] were 10% and 5%, respectively.
As to `O=C(Nc1c(Cl)cncc1Cl)c1ccc(OC(F)F)c(OCC2CC2)c1` [ROFLUMILAST], in data set [7], the Activity result is “Toxic”.
For the compound `CCOc1nc(Cl)cc2c1c(NCC(C)C)nn2CCCC(=O)O`, the figures for the inhibition in data set [1] and in data set [2] were 6% and 27%, respectively.
In turn, `CC(C)NC(=O)c1ccc(OC(F)F)c(OCC2CC2)c1` came in with a bioavailability in [8] of 1.2%.
As for `CCOc1nc(Cl)cc2c1cnn2-c1cccc(OC)c1`, the inhibition in data set [2] came to 7%.
Consider `CCOc1nc(Cl)cc2c1cnn2CCC(=O)O`, for which the values for the inhibition in data set [1] and in data set [2] were 8% and 19%, respectively.
In the case of `CCOc1nc(Cl)cc2c1cnn2C1CCS(=O)(=O)CC1`, in data set [2], the inhibition was found to be 3%.
Turning to `CCOc1nc(Cl)cc2c1cnn2Cc1cccnc1`, in [2], the inhibition amounted to 5%.
Take `CCOc1nc(Cl)cc2c1c(Nc1ccccc1)nn2CCCC(=O)O`: the results for the inhibition in [1] and in data set [2] were 7% and 9%, respectively.
With `CCOc1nc(Cl)cc2nn(CCCC(=O)NO)cc12`, the inhibition in data set [1] amounted to 18%; in data set [2] it was 63%. The midpoint of inhibition in [4], the IC50, lay at 51.7 nM.
Turning to `CCOc1nc(Cl)cc2c1cnn2CCO`, the inhibition in [1] stood at 3%; in data set [2], 4%.
In the case of `CCOc1nc(Cl)cc2c1c(NCc1ccccc1)nn2CCCC(=O)O`, the results for the inhibition in data set [1] and in data set [2] were 4% and 18%, respectively.
As for `FC(F)(F)COc1nc(Cl)cc2c1cnn2C1CCOCC1`, the inhibition amounted to 35% in data set [3] and 16% in data set [2].
Take `CCOc1nc(-c2ccsc2)cc2c1cnn2C1CCOCC1`: the inhibition worked out at 4% in [3] and 3% in [2].

Broadly, the inhibition is the relative decrease from the control value, in per cent. The low end stands for a response near the control, the high end for a response far below the control. As a reminder, the IC50 is the concentration needed to halve the response being measured. For orientation: bioavailability means the share of a dose that reaches the circulation, judged against a reference dose that is usually intravenous. A high value points to good availability.

Source of the values: ChEMBL document CHEMBL5532675, “Discovery of 4-Ethoxy-6-chloro-5-azaindazoles as Novel PDE4 Inhibitors for the Treatment of Alcohol Use Disorder and Alcoholic Liver Diseases” (J Med Chem, 2024).
